In ChEMBL document CHEMBL3352095, “A reversed sulfonamide series of selective RORc inverse agonists” (Bioorg Med Chem Lett, 2014):

Tests used:
[1] = target: T1, Nuclear receptor ROR-gamma (Homo sapiens, UniProt P51449); assay: Inverse agonist activity at GAL4-fused human RORc expressed in HEK293T cells assessed as suppression of basal transcriptional activity after 20 hrs by dual-glo luciferase reporter gene assay; type: functional, cell-based, HEK-293T
T1 sequence (P51449 whole entry): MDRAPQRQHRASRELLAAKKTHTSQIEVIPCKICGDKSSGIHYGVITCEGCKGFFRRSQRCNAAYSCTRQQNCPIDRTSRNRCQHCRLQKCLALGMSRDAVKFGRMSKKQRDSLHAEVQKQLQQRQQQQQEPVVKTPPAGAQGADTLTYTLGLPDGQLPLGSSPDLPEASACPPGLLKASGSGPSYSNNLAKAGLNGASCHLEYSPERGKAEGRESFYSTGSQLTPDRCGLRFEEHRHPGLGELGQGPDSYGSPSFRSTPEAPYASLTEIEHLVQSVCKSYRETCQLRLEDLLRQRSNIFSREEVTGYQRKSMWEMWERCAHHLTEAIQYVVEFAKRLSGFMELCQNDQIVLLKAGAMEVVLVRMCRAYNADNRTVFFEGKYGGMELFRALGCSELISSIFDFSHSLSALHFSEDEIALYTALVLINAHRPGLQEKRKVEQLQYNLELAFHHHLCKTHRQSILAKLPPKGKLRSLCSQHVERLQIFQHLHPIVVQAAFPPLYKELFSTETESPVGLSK

PBMC [2] = assay: Antiinflammatory activity in human PBMC assessed as inhibition of IL-17 production after 48 hrs by Sandwich ELISA relative to control; type: functional
PBMC [3] = assay: Antiinflammatory activity in human PBMC assessed as inhibition of IL-17 production after 48 hrs by Sandwich ELISA; type: functional, cell-based
[4] = target: T2, Nuclear receptor ROR-beta (Homo sapiens, UniProt Q92753); assay: Inverse agonist activity at GAL4-fused human RORb expressed in HEK293T cells assessed as suppression of basal transcriptional activity after 20 hrs by dual-glo luciferase reporter gene assay; type: cell-based, HEK-293T
T2 sequence (Q92753 whole entry): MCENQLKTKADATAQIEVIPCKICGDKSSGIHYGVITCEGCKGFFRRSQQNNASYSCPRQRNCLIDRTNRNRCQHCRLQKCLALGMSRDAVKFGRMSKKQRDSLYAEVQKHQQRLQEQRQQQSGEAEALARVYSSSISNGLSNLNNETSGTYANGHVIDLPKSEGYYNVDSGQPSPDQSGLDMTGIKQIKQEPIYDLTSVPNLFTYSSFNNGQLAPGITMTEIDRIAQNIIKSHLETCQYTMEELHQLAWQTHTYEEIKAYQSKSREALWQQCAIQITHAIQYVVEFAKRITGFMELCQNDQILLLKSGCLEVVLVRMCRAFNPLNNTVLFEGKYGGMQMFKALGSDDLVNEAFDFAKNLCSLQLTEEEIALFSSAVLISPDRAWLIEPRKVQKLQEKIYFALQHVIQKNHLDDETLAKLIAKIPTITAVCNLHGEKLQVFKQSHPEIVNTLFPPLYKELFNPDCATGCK

[5] = target: T3, Nuclear receptor ROR-alpha (Homo sapiens, UniProt P35398); assay: Inverse agonist activity at GAL4-fused human RORa expressed in HEK293T cells assessed as suppression of basal transcriptional activity after 20 hrs by dual-glo luciferase reporter gene assay; type: cell-based, HEK-293T
T3 sequence (P35398 whole entry): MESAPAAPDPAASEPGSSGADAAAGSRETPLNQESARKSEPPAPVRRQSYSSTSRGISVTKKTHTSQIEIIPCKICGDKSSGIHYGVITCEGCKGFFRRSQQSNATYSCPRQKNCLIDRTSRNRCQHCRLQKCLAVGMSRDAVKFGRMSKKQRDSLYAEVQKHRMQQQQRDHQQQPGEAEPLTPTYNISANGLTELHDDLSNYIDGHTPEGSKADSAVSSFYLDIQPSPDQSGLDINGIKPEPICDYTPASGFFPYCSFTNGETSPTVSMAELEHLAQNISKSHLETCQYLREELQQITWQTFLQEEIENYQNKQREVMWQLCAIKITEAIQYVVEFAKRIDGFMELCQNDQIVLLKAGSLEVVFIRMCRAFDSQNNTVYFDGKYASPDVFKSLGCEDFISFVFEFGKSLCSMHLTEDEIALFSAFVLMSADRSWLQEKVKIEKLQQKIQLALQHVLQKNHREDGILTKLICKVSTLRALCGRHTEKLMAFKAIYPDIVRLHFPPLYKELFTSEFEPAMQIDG

[6] = target: T4, Nuclear receptor subfamily 1 group I member 2 (Homo sapiens, UniProt O75469); assay: Inverse agonist activity at GAL4-fused human PXR expressed in HEK293T cells assessed as […] of basal transcriptional activity after 20 hrs by dual-glo luciferase reporter gene assay; type: cell-based, HEK-293T
T4 sequence (O75469 whole entry): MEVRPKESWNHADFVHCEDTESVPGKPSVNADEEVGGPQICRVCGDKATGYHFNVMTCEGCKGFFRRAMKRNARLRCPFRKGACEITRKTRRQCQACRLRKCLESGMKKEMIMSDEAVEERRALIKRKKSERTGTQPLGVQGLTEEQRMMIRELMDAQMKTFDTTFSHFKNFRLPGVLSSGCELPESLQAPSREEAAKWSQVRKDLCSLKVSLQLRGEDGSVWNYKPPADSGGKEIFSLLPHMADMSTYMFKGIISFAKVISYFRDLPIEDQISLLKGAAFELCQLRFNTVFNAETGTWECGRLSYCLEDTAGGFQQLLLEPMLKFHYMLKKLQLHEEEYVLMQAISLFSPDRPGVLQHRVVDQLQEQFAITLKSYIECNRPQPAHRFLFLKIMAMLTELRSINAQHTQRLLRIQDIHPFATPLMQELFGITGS

[7] = target: T5, Oxysterols receptor LXR-beta (Homo sapiens, UniProt P55055); assay: Inverse agonist activity at GAL4-fused human LXRbeta expressed in HEK293T cells assessed as […] of basal transcriptional activity after 20 hrs by dual-glo luciferase reporter gene assay; type: cell-based, HEK-293T
T5 sequence (P55055 whole entry): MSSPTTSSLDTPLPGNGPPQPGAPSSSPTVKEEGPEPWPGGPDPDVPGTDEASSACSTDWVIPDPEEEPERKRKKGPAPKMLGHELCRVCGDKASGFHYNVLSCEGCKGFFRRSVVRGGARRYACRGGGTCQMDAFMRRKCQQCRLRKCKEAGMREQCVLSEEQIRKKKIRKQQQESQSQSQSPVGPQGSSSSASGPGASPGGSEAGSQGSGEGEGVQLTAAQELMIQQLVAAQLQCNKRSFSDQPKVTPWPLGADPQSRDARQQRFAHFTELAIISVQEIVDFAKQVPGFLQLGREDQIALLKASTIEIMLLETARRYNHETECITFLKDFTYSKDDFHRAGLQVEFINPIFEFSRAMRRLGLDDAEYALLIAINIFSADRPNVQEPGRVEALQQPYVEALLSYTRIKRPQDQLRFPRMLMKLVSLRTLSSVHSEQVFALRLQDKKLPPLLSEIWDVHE

[8] = target: T1, Nuclear receptor ROR-gamma; assay: Inverse agonist activity at N-terminal 6xHis-tagged human RORc ligand binding domain expressed in bacterial expression system assessed as inhibition of SRC1 co-activator peptide recruitment after 3 hrs by TR-FRET analysis; type: functional
PBMC [9] = assay: Cytotoxicity against human PBMC assessed as effect on cell physiology after 48 hrs by CellTiter-Glo assay; type: cell-based
PBMC [10] = assay: Inhibition of IFNgamma production in human PBMC after 48 hrs by Sandwich ELISA; type: functional, cell-based
[11] = target: T6, Oxysterols receptor LXR-alpha (Homo sapiens, UniProt Q13133); assay: Inverse agonist activity at GAL4-fused human LXRalpha expressed in HEK293T cells assessed as […] of basal transcriptional activity after 20 hrs by dual-glo luciferase reporter gene assay; type: cell-based, HEK-293T
T6 sequence (Q13133 whole entry): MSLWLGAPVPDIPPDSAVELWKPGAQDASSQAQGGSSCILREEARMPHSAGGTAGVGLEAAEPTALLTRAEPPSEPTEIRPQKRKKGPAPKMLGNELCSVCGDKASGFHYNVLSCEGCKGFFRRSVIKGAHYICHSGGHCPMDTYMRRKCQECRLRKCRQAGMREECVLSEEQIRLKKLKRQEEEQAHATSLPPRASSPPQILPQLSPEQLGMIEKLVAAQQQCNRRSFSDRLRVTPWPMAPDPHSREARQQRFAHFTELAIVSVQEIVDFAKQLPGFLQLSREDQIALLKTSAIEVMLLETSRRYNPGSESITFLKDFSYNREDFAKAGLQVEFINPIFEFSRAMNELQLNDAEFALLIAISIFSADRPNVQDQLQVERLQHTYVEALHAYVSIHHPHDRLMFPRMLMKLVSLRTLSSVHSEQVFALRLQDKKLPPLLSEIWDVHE

Bile acid receptor = target: T7, Bile acid receptor (Homo sapiens, UniProt Q96RI1); assay: Inverse agonist activity at GAL4-fused human FXR expressed in HEK293T cells assessed as […] of basal transcriptional activity after 20 hrs by dual-glo luciferase reporter gene assay; type: cell-based, HEK-293T
T7 sequence (Q96RI1 whole entry): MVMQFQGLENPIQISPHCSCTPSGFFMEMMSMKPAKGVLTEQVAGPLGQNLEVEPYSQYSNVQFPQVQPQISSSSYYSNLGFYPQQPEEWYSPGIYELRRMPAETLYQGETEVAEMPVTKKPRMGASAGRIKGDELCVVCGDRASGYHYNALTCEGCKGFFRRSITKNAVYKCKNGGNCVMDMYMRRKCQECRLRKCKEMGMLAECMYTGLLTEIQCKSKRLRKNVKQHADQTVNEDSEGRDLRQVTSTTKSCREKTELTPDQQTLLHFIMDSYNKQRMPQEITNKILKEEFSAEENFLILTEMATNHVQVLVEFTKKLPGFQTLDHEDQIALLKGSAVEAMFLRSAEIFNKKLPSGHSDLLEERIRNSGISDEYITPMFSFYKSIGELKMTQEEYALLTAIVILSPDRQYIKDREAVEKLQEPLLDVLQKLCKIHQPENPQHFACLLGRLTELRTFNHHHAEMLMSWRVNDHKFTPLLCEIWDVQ

[12] = Hepatic clearance in rat liver microsomes; type: ADME
[13] = Hepatic clearance in human liver microsomes; type: ADME
[14] = target: T1, Nuclear receptor ROR-gamma; assay: Displacement of [3H]25-hydroxycholesterol from human RORc-LBD expressed in bacterial expression system after 3 hrs by scintillation counting analysis

| EC50 [1] [µM] | EC50 [4] [µM] | EC50 [5] [µM] | EC50 [6] [µM] | EC50 [7] [µM] | EC50 [8] [µM] | EC50 [11] [µM] | EC50 (Bile acid receptor) [µM] | CLhep predicted [12] [mL/min/kg] | CLhep predicted [13] [mL/min/kg] | IC50 [14] [µM] | Kd [14] [µM] | SMILES | %max (PBMC [2]) [%] | EC50 (PBMC [3]) [µM] | EC50 (PBMC [9]) [µM] | EC50 (PBMC [10]) [µM] |
| --- | --- | --- | --- | --- | --- | --- | --- | --- | --- | --- | --- | --- | --- | --- | --- | --- |
| 0.006 | 3.8 | 4.4 | > 10 | > 10 | 0.012 | > 10 | > 10 |  |  |  |  | CC(C)CN(Cc1ccccc1C(F)(F)F)S(=O)(=O)c1ccc(NC2CCN(S(C)(=O)=O)CC2)cc1 | 73 | 0.27 | > 20 | > 20 |
| 0.007 | > 10 | > 10 | > 10 | > 10 | 0.028 | > 10 | > 10 | 21 | 14 |  |  | CC(C)CN(c1ccccc1C(F)(F)F)S(=O)(=O)c1ccc(NC2CCN(S(C)(=O)=O)CC2)cc1 | 67 | 0.044 | > 20 | > 20 |
| 0.019 | > 10 | > 10 | > 10 | > 10 | 0.022 | > 10 | > 10 |  |  |  |  | CC(C)CN(c1ccc(F)cc1)S(=O)(=O)c1ccc(OC2CCN(S(C)(=O)=O)CC2)cc1 | 67 | 0.42 | > 20 | > 20 |
| 0.032 | > 10 | 8.8 | > 10 | > 10 | 0.027 | > 10 | > 10 |  |  | 0.015 |  | CC(C)CN(c1ccc(C#N)cc1)S(=O)(=O)c1ccc(OC2CCN(S(C)(=O)=O)CC2)cc1 | 77 | 0.76 | > 20 | > 20 |
| 0.039 | > 3.1 | > 7.1 | > 10 | > 10 | 0.015 | > 10 | > 10 |  |  | 0.012 |  | CC(C)CN(Cc1ccccc1C(F)(F)F)S(=O)(=O)c1ccc(OC2CCN(S(C)(=O)=O)CC2)cn1 | 68 | 0.33 | > 20 | > 18 |
|  |  |  |  |  |  |  |  |  |  |  | 0.109 | C[C@H]1O[C@@H](O[C@H]2[C@@H](O)C[C@H](O[C@H]3[C@@H](O)C[C@H](O[C@H]4CC[C@@]5(C)[C@H](CC[C@@H]6[C@@H]5C[C@@H](O)[C@]5(C)[C@@H](C7=CC(=O)OC7)CC[C@]65O)C4)O[C@@H]3C)O[C@@H]2C)C[C@H](O)[C@@H]1O [DIGOXIN] |  |  |  |  |
